Our source for the Activity, inhibition of growth and IC50 values is ChEMBL document CHEMBL4428092, “Synthesis and activity evaluation of the cyclic dipeptides arylidene N-alkoxydiketopiperazines” (Bioorg Med Chem, 2016).

For assay [1], the system named is HCT-15. As to the kind of experiment: Cytotoxicity against human HCT15 cells at 5 uM after 24 hrs by sulforhodamine B assay relative to control. In kind it is functional. On the technique in general: In SRB staining, fixed cells bind dye roughly in proportion to their protein.
Assay [2] has as its system HT-29. Put plainly: Cytotoxicity against human HT-29 cells at 10 uM after 24 hrs by sulforhodamine B assay relative to control. The format is functional.
Assay [3] relates to HCT-15. Put plainly: Cytotoxicity against human HCT15 cells at 10 uM after 24 hrs by sulforhodamine B assay relative to control. In kind it is functional.
For assay [4], the system named is HCT-15. Put plainly: Growth inhibition of human HCT15 cells at 20 ug/ml relative to control. In kind it is functional. The conditions noted are these: read-out: GI.
For assay [5], the system named is A549. As to the kind of experiment: Growth inhibition of human A549 cells at 20 ug/ml relative to control. The format is functional. The note with it: read-out: GI.
Assay [6] has as its system HCT-15. As to the kind of experiment: Cytotoxicity against human HCT15 cells at 50 uM after 24 hrs by sulforhodamine B assay relative to control. The format is functional.
Assay [7] can be described thus: Growth inhibition of human K562-1 cells at 20 ug/ml after 24 hrs by sulforhodamine B assay relative to control. The format is functional. The note with it: read-out: GI.
Assay [8] in a line: Cytotoxicity against human K562-1 cells at 10 uM after 24 hrs by sulforhodamine B assay relative to control. The format is functional.
Assay [9] relates to HT-29. As to the kind of experiment: Cytotoxicity against human HT-29 cells at 50 uM after 24 hrs by sulforhodamine B assay relative to control. In kind it is functional.
Assay [10] has as its system HT-29. Put plainly: Cytotoxicity against human HT-29 cells at 100 uM after 24 hrs by sulforhodamine B assay relative to control. The format is functional.
The nature of assay [11]: Cytotoxicity against human K562-1 cells at 5 uM after 24 hrs by sulforhodamine B assay relative to control. The format is functional.
In the next assay the test system is MDA-MB-231. Put plainly: Growth inhibition of human MDA-MB-231 cells at 20 ug/ml relative to control. The note with it: read-out: GI. In kind it is functional.
In assay [12] the test system is HT-29. As to the kind of experiment: Cytotoxicity against human HT-29 cells at 20 uM after 24 hrs by sulforhodamine B assay relative to control. In kind it is functional.
Assay [13] can be described thus: Cytotoxicity against human K562-1 cells at 20 uM after 24 hrs by sulforhodamine B assay relative to control. In kind it is functional.
Assay [14] concerns HCT-15. As to the kind of experiment: Cytotoxicity against human HCT15 cells at 100 uM after 24 hrs by sulforhodamine B assay relative to control. In kind it is functional.
Assay [15] concerns HT-29. Put plainly: Growth inhibition of human HT-29 cells at 20 ug/ml relative to control. The note with it: read-out: GI. The format is functional.
For assay [16], the system named is HCT-15. Put plainly: Cytotoxicity against human HCT15 cells at 20 uM after 24 hrs by sulforhodamine B assay relative to control. In kind it is functional.
The nature of assay [17]: Antiproliferative activity against human K562-1 cells after 24 hrs by sulforhodamine B assay relative to control. In kind it is functional, cell-based.
Assay [18] relates to HCT-15. As to the kind of experiment: Antiproliferative activity against human HCT15 cells after 24 hrs by sulforhodamine B assay relative to control. The conditions noted are these: HCT-15, 24 h. The format is functional, cell-based.
Assay [19] relates to A549. As to the kind of experiment: Cytotoxicity against human A549 cells at 50 uM after 24 hrs by sulforhodamine B assay relative to control. The format is functional.
Assay [20] deals with A549. As to the kind of experiment: Cytotoxicity against human A549 cells at 20 uM after 24 hrs by sulforhodamine B assay relative to control. In kind it is functional.
The subject of a further assay is HCT-8. Put plainly: Growth inhibition of human HCT8 cells at 20 ug/ml relative to control. The note with it: read-out: GI. In kind it is functional.
The test system of another assay is HepG2. As to the kind of experiment: Growth inhibition of human HepG2 cells at 20 ug/ml relative to control. In kind it is functional. The note with it: read-out: GI.
A short description of assay [21]: Cytotoxicity against human K562-1 cells at 100 uM after 24 hrs by sulforhodamine B assay relative to control. In kind it is functional.
A short description of assay [22]: Cytotoxicity against human K562-1 cells at 50 uM after 24 hrs by sulforhodamine B assay relative to control. In kind it is functional.
Assay [23] can be described thus: Growth inhibition of human Bre04 cells at 20 ug/ml after 24 hrs by sulforhodamine B assay relative to control. In kind it is functional. The conditions noted are these: Bre04, 24 h, read-out: GI.
The nature of assay [24]: Growth inhibition of human K562-1 cells at 20 ug/ml relative to control. The format is functional. The note with it: read-out: GI.
The subject of assay [25] is A549. As to the kind of experiment: Cytotoxicity against human A549 cells at 100 uM after 24 hrs by sulforhodamine B assay relative to control. In kind it is functional.

As to `COc1cc(/C=C2\C(=O)N3CCC[C@H]3C(=O)N2OC2CCCCC2)cc(OC)c1OC`, the Activity was 40.4% with HCT-15 [1]; 48.8% in the assay on HT-29 [2]; 39.2% with HCT-15 [3]; 69.3% in the assay on HCT-15 [6]; 50.7% in assay [8]; 56.6% with HT-29 [9]. Further, the Activity in the assay on HT-29 [10] is 88.5%; in assay [11] it was 30.2%; with HT-29 [12] it was 42.9%; in assay [13], 61.3%; in the assay on HCT-15 [14], 89.7%; in the assay with HCT-15 [16], 47.6%. The Activity in the assay on A549 [19] came to 33.4%; in the assay on A549 [20], 20.5%; in assay [21], 96.4%; in assay [22] it was 83.6%. Besides, the inhibition of growth at 20 µg/mL was determined as 67.9% with HCT-15 [4]; 26.4% in the assay on A549 [5]; 80.1% in assay [7]; 42.5% in the assay on MDA-MB-231; 60.5% with HT-29 [15]; 75.2% in the assay with HCT-8. The inhibition of growth at 20 µg/mL in the assay with HepG2 stood at 76.1%. For the same compound, the values for the IC50 (in [17]; with HCT-15 [18]) were 9.8 µM and 23.7 µM, respectively.
Take `O=C1[C@@H]2CCCN2C(=O)/C(=C\c2ccccc2)N1OCc1ccccc1`: the inhibition of growth at 20 µg/mL was found to be 25% in assay [23]; 69.7% with HCT-15 [4]; 41.3% with A549 [5]; 32.6% in the assay on MDA-MB-231; 76.2% with HT-29 [15]; 65.6% in assay [24]. The inhibition of growth at 20 µg/mL with HCT-8 is 66.8%; with HepG2, 69.2%.
On to `O=C1[C@@H]2CCCN2C(=O)/C(=C\c2cccnc2)N1OC1CCCCC1`, for which the inhibition of growth at 20 µg/mL in assay [23] is 35.3%; in the assay with HCT-15 [4] it was 62.1%; with A549 [5], 35.2%; with MDA-MB-231 it was 16.1%; in the assay on HT-29 [15], 70.3%; in assay [24] it was 69.3%. Besides, the figures for the inhibition of growth at 20 µg/mL in the assay on HCT-8 and in the assay with HepG2 were 80.1% and 60.4%, respectively.
In the case of `CCCCON1C(=O)[C@@H]2CCCN2C(=O)/C1=C\c1ccccc1`, the Activity with HCT-15 [1] is recorded as 4.04%; with HT-29 [2], 21.2%; in the assay with HCT-15 [3] it was 48.8%; in the assay on HCT-15 [6], 87.5%; in [8], 39.2%; in the assay on HT-29 [9] it was 61.6%. Also, the Activity in the assay on HT-29 [10] is given as 80.6%; in [11], 30.2%; with HT-29 [12] it was 39.8%; in assay [13], 46.5%; in the assay on HCT-15 [14], 99.1%; in the assay on HCT-15 [16] it was 78.3%. Besides, the Activity with A549 [19] was 48.4%; in the assay with A549 [20] it was 16.2%; in assay [21], 99.6%; in assay [22] it was 92.7%; with A549 [25] it was 91.1%. For the same compound, the inhibition of growth at 20 µg/mL in the assay on HCT-15 [4] was 90.6%; in the assay with A549 [5] it was 50.8%; in the assay with MDA-MB-231 it was 16.3%; with HT-29 [15], 64.9%; in assay [24] it was 96.2%; in the assay on HCT-8, 68.4%. Moreover, the inhibition of growth at 20 µg/mL in the assay with HepG2 came to 59.9%. The IC50 in [17] came out at 27.3 µM; with HCT-15 [18], 11.8 µM.
As for `CCCCON1C(=O)[C@@H]2CCCN2C(=O)/C1=C\c1cc(OC)c(OC)c(OC)c1`, the inhibition of growth at 20 µg/mL stood at 61.6% in the assay on HCT-15 [4]; 43.4% in the assay on A549 [5]; 45.6% in the assay with MDA-MB-231; 61.6% with HT-29 [15]; 64.4% in [24]; 60.6% in the assay on HCT-8. In addition, the inhibition of growth at 20 µg/mL in the assay with HepG2 stood at 64.3%.

Broadly, the IC50 is the concentration that gives 50% inhibition.
